Assay results as given in patent publication US10793580B2, “Substituted pyrazoloazepin-8-ones and their use as phosphodiesterase inhibitors” (LEO Pharma A/S, priority 2016, dated 2020).
Read-outs that look alike come from different tables or passages of the source.

Target: human PDE4D catalytic domain (Homo sapiens (Human), UniProt Q08499)
Assay: PDE4 Assay (TR-FRET, FAM-cAMP cleavage)
Format: biochemical
Conditions: read-out: PDE4 IC50 range
Procedure, shortened: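 Readout is Tb-to-FAM time-resolved FRET after nanoparticle capture of AMP, the product of cleaving a cAMP/FAM-cAMP mixture by PDE4D catalytic domain (S380-L740) in the presence of titrated compound. Values are IC50 ranges in nM: concentration halving substrate cleavage relative to controls.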

[1] = human PDE4D catalytic domain (UniProt Q08499 [S380-L740]), 50% inhibition of substrate cleavage

human PDE4D catalytic domain, sequence (Q08499 380-740): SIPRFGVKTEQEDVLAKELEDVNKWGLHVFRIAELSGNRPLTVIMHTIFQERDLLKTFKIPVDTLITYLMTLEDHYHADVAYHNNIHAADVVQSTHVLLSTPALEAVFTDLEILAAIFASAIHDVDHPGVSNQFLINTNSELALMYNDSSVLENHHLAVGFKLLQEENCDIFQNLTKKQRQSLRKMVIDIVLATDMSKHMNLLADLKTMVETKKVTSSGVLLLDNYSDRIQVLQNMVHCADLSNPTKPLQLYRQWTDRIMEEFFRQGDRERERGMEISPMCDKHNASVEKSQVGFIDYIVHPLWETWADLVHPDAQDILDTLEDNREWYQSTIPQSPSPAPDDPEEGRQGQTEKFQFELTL

`CCn1nc(CCCCOC(=O)c2ccc(C)cc2)c2c1C(=O)NCC1(CCOCC1)C2` [Example 123, 4-(1-ethyl-8-oxo-spiro[6,7-dihydro-4H-pyrazolo[3,4-c]azepine-5,4′-tetrahydropyran]-3-yl)butyl 4-methylbenzoate] was tested, and the IC50 [1] was less than 100 nM.

In the case of `CCn1nc(CCCOC(=O)c2ccc(F)cc2C(F)(F)F)c2c1C(=O)NCC1(CCOCC1)C2` [Example 71, 3-(1-ethyl-8-oxo-spiro[6,7-dihydro-4H-pyrazolo[3,4-c]azepine-5,4′-tetrahydro-pyran]-3-yl)propyl 4-fluoro-2-(trifluoromethyl)benzoate], the IC50 [1] is reported as less than 100 nM.

For `CCn1nc(CCCOC(=O)c2cc(OC)ccc2C(F)(F)F)c2c1C(=O)NCC1(CCOCC1)C2` [Example 80, 3-(1-ethyl-8-oxo-spiro[6,7-dihydro-4H-pyrazolo[3,4-c]azepine-5,4′-tetrahydro-pyran]-3-yl)propyl 5-methoxy-2-(trifluoromethyl)benzoate], the IC50 [1] was less than 100 nM.

For `CCn1nc(C[C@@H](C)COC(=O)[C@H]2C[C@@H](O)C2)c2c1C(=O)NCC1(CCOCC1)C2` [Example 138, [(2R)-3-(1-ethyl-8-oxo-spiro[6,7-dihydro-4H-pyrazolo[3,4-c]azepine-5,4′-tetrahydropyran]-3-yl)-2-methyl-propyl] 3-hydroxy-cyclobutanecarboxylate], the IC50 [1] was less than 100 nM.

For `CCn1nc(C[C@@H](C)COC(=O)CCSC)c2c1C(=O)NCC1(CCOCC1)C2` [Example 139, [(2R)-3-(1-ethyl-8-oxo-spiro[6,7-dihydro-4H-pyrazolo[3,4-c]azepine-5,4′-tetrahydropyran]-3-yl)-2-methyl-propyl] 3-methylsulfanylpropanoate], the IC50 [1] was less than 100 nM.

Molecule `CCn1nc(CC(C)(C)COC(=O)c2ccc(S(=O)(=O)C(C)C)cc2)c2c1C(=O)NCC1(CCOCC1)C2` [Example 207, [3-(1-ethyl-8-oxo-spiro[6,7-dihydro-4H-pyrazolo[3,4-c]azepine-5,4′-tetrahydropyran]-3-yl)-2,2-dimethyl-propyl] 4-isopropylsulfonylbenzoate] has an IC50 [1] of less than 100 nM.

Work on `CCn1nc(CC(C)(C)COC(=O)c2ccc(C(=O)N3CCCCC3)cc2)c2c1C(=O)NCC1(CCOCC1)C2` [Example 222, [3-(1-ethyl-8-oxo-spiro[6,7-dihydro-4H-pyrazolo[3,4-c]azepine-5,4′-tetrahydro-pyran]-3-yl)-2,2-dimethyl-propyl] 4-(piperidine-1-carbonyl)benzoate] yielded an IC50 [1] of less than 100 nM.

`CCn1nc(CCCOC(=O)c2cccc(C(C)=O)c2)c2c1C(=O)NCC1(CCOCC1)C2` [Example 28, 3-(1-ethyl-8-oxo-spiro[6,7-dihydro-4H-pyrazolo[3,4-c]azepine-5,4′-tetrahydropyran]-3-yl)propyl 3-acetylbenzoate] showed an IC50 [1] of less than 100 nM.

Molecule `CCn1nc(CCCOC(=O)c2ccc(Cl)cc2F)c2c1C(=O)NCC1(CCOCC1)C2` [Example 53, 3-(1-ethyl-8-oxo-spiro[6,7-dihydro-4H-pyrazolo[3,4-c]azepine-5,4′-tetrahydropyran]-3-yl)propyl 4-chloro-2-fluoro-benzoate] has an IC50 [1] of less than 100 nM.

With `CCn1nc(CCCOC(=O)c2cc(Cl)ccc2F)c2c1C(=O)NCC1(CCOCC1)C2` [Example 51, 3-(1-ethyl-8-oxo-spiro[6,7-dihydro-4H-pyrazolo[3,4-c]azepine-5,4′-tetrahydropyran]-3-yl)propyl 5-chloro-2-fluoro-benzoate] the IC50 [1] was less than 100 nM.

`CCn1nc(CCCOC(=O)c2ccc(C#N)c(F)c2)c2c1C(=O)NCC1(CCOCC1)C2` [Example 32, 3-(1-ethyl-8-oxo-spiro[6,7-dihydro-4H-pyrazolo[3,4-c]azepine-5,4′-tetrahydropyran]-3-yl)propyl 4-cyano-3-fluoro-benzoate] was tested, and the IC50 [1] was less than 100 nM.

Molecule `CCn1nc(CCCOC(=O)c2ccccc2S(C)(=O)=O)c2c1C(=O)NCC1(CCOCC1)C2` [Example 64, 3-(1-ethyl-8-oxo-spiro[6,7-dihydro-4H-pyrazolo[3,4-c]azepine-5,4′-tetrahydropyran]-3-yl)propyl 2-methylsulfonylbenzoate] has an IC50 [1] of less than 100 nM.

`CCn1nc(CC(C)(C)COC(=O)CCS(C)(=O)=O)c2c1C(=O)NCC1(CCOCC1)C2` [Example 199, [3-(1-ethyl-8-oxo-spiro[6,7-dihydro-4H-pyrazolo[3,4-c]azepine-5,4′-tetrahydropyran]-3-yl)-2,2-dimethyl-propyl] 3-methylsulfonylpropanoate] gave an IC50 [1] of less than 100 nM.

Molecule `CCn1nc(CC(C)(C)COC(=O)c2ccn(C)n2)c2c1C(=O)NCC1(CCOCC1)C2` [Example 298, [3-(1-ethyl-8-oxo-spiro[6,7-dihydro-4H-pyrazolo[3,4-c]azepine-5,4′-tetrahydro-pyran]-3-yl)-2,2-dimethyl-propyl] 1-methylpyrazole-3-carboxylate] has an IC50 (Table 17, Examples 297-316) of less than 100 nM.

For `CCn1nc(CC(C)(C)COC(=O)c2ccc(S(=O)(=O)N(C)C)cc2)c2c1C(=O)NCC1(CCOCC1)C2` [Example 208, [3-(1-ethyl-8-oxo-spiro-[6,7-dihydro-4H-pyrazolo-[3,4-c]azepine-5,4′-tetra-hydropyran]-3-yl)-2,2-dimethyl-propyl] 4-(di-methylsulfamoyl)benzoate], the IC50 [1] was less than 100 nM.

Work on `CCn1nc(C[C@@H](C)COC(=O)c2cccc(OC)c2)c2c1C(=O)NCC1(CCOCC1)C2` [Example 150, [(2R)-3-(1-ethyl-8-oxo-spiro[6,7-dihydro-4H-pyrazolo[3,4-c]azepine-5,4′-tetrahydropyran]-3-yl)-2-methyl-propyl] 3-methoxybenzoate] yielded an IC50 [1] of less than 100 nM.

In the case of `CCn1nc(CC(C)(C)COC(=O)c2ccc(C(=O)N3CCOCC3)cc2)c2c1C(=O)NCC1(CCOCC1)C2` [Example 223, [3-(1-ethyl-8-oxo-spiro[6,7-dihydro-4H-pyrazolo[3,4-c]azepine-5,4′-tetrahydropyran]-3-yl)-2,2-dimethyl-propyl] 4-(morpholine-4-carbonyl)benzoate], the IC50 [1] is reported as less than 100 nM.

`CCn1nc(CCCCOC(=O)c2ccc(C(=O)N3CCOCC3)cc2)c2c1C(=O)NCC1(CCOCC1)C2` [Example 133, 4-(1-ethyl-8-oxo-spiro[6,7-dihydro-4H-pyrazolo[3,4-c]azepine-5,4′-tetrahydropyran]-3-yl)butyl 4-(morpholine-4-carbonyl)benzoate] showed an IC50 [1] of less than 100 nM.

`CCn1nc(CCCOC(=O)c2ccc(C(=O)N(C)C)cc2)c2c1C(=O)NCC1(CCOCC1)C2` [Example 106, 3-(1-ethyl-8-oxo-spiro[6,7-dihydro-4H-pyrazolo[3,4-c]azepine-5,4′-tetrahydro-pyran]-3-yl)propyl 4-(dimethylcarbamoyl)benzoate] gave an IC50 [1] of less than 100 nM.

`CCn1nc(CCCOC(=O)c2cccc(C(=O)NC)c2)c2c1C(=O)NCC1(CCOCC1)C2` [Example 114, 3-(1-ethyl-8-oxo-spiro[6,7-dihydro-4H-pyrazolo[3,4-c]azepine-5,4′-tetrahydropyran]-3-yl)propyl 3-(methyl-carbamoyl)benzoate] gave an IC50 [1] of less than 100 nM.

In the case of `CCn1nc(CCCOC(=O)c2ccc(C(=O)N3CCCC3)cc2)c2c1C(=O)NCC1(CCOCC1)C2` [Example 107, 3-(1-ethyl-8-oxo-spiro[6,7-dihydro-4H-pyrazolo[3,4-c]azepine-5,4′-tetrahydro-pyran]-3-yl)propyl 4-(pyrrolidine-1-carbonyl)benzoate], the IC50 [1] is reported as less than 100 nM.

In the case of `CCc1ccc(C(=O)OCC(C)(C)Cc2nn(CC)c3c2CC2(CCOCC2)CNC3=O)cc1` [Example 195, [3-(1-ethyl-8-oxo-spiro[6,7-dihydro-4H-pyrazolo[3,4-c]azepine-5,4′-tetrahydropyran]-3-yl)-2,2-dimethyl-propyl] 4-ethylbenzoate], the IC50 [1] is reported as less than 100 nM.
